17 compounds from ChEMBL document CHEMBL4725445, “Discovery of a Cyclic Choline Analog That Inhibits Anaerobic Choline Metabolism by Human Gut Bacteria” (ACS Med Chem Lett, 2020) can be followed below.

Experiment [1] in a line: Inhibition of CutC in Escherichia coli MS 200-1 assessed as reduction in TMA formation incubated for 3.5 hrs under anaerobic condition in presence of d9-choline by LC-MS-MS analysis.
Experiment [2] in a line: Inhibition of TMA formation in human fecal suspension by LC-MS/MS. It counts as functional, tissue-based, Feces.
The nature of experiment [3]: Inhibition of Proteus mirabilis CutC assessed as TMA formation by LC-MS/MS.
Experiment [4] in a line: Inhibition of Clostridium sporogenes CutC assessed as TMA formation by LC-MS/MS.
Experiment [5] in a line: Inhibition of Klebsiella sp. MS 92-3 CutC assessed as TMA formation by LC-MS/MS. Also noted: species or system Klebsiella pneumoniae.
A short description of experiment [6]: Inhibition of Escherichia coli MS 69-1 CutC assessed as TMA formation by LC-MS/MS.
Experiment [7] has as its target T1, Choline trimethylamine-lyase (Desulfovibrio alaskensis, UniProt Q30W70).
T1 sequence (Q30W70 whole entry): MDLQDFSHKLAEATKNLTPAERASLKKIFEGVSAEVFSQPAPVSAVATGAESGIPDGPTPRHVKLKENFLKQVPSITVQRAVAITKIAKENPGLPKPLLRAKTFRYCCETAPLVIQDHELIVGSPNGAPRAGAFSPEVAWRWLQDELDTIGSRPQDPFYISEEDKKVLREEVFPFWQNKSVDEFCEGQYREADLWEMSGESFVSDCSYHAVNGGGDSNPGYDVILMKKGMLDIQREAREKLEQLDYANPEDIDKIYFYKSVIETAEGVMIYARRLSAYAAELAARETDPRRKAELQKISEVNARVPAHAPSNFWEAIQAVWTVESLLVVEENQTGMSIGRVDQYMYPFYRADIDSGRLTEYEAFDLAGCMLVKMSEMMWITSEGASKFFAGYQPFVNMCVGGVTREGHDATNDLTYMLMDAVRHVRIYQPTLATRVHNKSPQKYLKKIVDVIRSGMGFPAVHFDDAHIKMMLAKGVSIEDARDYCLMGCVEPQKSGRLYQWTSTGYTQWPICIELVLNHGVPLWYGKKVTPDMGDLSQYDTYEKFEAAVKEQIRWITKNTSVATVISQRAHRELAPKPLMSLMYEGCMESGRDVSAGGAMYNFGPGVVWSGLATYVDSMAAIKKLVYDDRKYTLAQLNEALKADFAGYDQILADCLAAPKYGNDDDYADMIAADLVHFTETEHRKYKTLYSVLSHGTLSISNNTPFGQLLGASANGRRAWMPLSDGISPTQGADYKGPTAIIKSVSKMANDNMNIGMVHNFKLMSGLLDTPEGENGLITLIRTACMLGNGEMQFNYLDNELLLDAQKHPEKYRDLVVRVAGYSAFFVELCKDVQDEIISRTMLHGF
Briefly: Inhibition of Desulfovibrio desulfuricans (strain G20) CutC assessed as reduction in TMA by spectrophotometry.

Take `CN1CCC(O)CC1`: in experiment [1], the IC50 was 1600 µM. In the case of `CN1CC=C[C@H](O)C1`, the IC50 was determined as 9.8 µM in experiment [1]; 60 µM in experiment [2]; 92 µM in experiment [3]; 12 µM in experiment [4]; 4 µM in experiment [5]; 22 µM in experiment [6].

As for `CN1CCCC(=O)C1`, the figures for the half-inhibitory concentration (IC50) in experiment [7] and in experiment [1] were over 10000 µM and 27000 µM, respectively. On to `CN1CCC(O)C1` (stereo not drawn), for which the half-inhibitory concentration (IC50) in experiment [1] is 6300 µM. Same read-out and setting: the same measure for `CC1=CC(O)CN(C)C1` (stereo not drawn): 920 µM.

Take `OC1C=CCN(C2CCC2)C1` (stereo not drawn): the IC50 in experiment [7] stood at 200 µM; in experiment [1], 190 µM. `[2H]C1(O)C=CCN(C)C1` (stereo not drawn): the IC50 in experiment [1] is 30 µM.

In the case of `CN1CC=CC(O)C1` (stereo not drawn), the IC50 in experiment [1] stood at 10 µM. Consider `CC(=O)OC1C=CCN(C)C1` (stereo not drawn), for which the IC50 in experiment [1] came to 1800 µM.

`C[N+]1(C)CC=CC(O)C1` (stereo not drawn): the IC50 in experiment [1] stood at 7.6 µM. Turning to `CCCN1CC=CC(O)C1` (stereo not drawn), the IC50 in experiment [1] was 200 µM.

As for `CN1CC=C[C@@H](O)C1`, the IC50 in experiment [1] is 31 µM. On the same count and under the same terms, the same measure for `OC1C=CCOC1` (stereo not drawn): 80 µM; for `OC1C=CCN(Cc2ccccc2)C1` (stereo not drawn): 370 µM; for `OC1C=CCCC1` (stereo not drawn): 260 µM.

Take `CN1CCCC(O)CC1` (stereo not drawn): the IC50 in experiment [1] was determined as 760 µM.

On to `C[N+](C)(C)CC=O` [BETAINE ALDEHYDE], for which the IC50 in experiment [2] was 1270 µM; in experiment [3] it was 2490 µM; in experiment [4], 1000 µM; in experiment [5] it was 212 µM; in experiment [6] it was 465 µM.

The IC50 is the concentration at which inhibition is half-maximal.
